The experiment concerns the target T1, HERG channel (Homo sapiens, UniProt Q12809).
T1 construct: expressed in transfected cells
Put plainly: Test B: R^+-Efflux Assay for Detection of HERG Channel Blockers. In kind it is cell-based. As to conditions: depolarisation-induced Rb+ efflux from Chinese hamster ovary cells stably expressing the HERG-channel; read-out: pIC50 for HERG channel blockade (converted).

T1 sequence (Q12809 whole entry): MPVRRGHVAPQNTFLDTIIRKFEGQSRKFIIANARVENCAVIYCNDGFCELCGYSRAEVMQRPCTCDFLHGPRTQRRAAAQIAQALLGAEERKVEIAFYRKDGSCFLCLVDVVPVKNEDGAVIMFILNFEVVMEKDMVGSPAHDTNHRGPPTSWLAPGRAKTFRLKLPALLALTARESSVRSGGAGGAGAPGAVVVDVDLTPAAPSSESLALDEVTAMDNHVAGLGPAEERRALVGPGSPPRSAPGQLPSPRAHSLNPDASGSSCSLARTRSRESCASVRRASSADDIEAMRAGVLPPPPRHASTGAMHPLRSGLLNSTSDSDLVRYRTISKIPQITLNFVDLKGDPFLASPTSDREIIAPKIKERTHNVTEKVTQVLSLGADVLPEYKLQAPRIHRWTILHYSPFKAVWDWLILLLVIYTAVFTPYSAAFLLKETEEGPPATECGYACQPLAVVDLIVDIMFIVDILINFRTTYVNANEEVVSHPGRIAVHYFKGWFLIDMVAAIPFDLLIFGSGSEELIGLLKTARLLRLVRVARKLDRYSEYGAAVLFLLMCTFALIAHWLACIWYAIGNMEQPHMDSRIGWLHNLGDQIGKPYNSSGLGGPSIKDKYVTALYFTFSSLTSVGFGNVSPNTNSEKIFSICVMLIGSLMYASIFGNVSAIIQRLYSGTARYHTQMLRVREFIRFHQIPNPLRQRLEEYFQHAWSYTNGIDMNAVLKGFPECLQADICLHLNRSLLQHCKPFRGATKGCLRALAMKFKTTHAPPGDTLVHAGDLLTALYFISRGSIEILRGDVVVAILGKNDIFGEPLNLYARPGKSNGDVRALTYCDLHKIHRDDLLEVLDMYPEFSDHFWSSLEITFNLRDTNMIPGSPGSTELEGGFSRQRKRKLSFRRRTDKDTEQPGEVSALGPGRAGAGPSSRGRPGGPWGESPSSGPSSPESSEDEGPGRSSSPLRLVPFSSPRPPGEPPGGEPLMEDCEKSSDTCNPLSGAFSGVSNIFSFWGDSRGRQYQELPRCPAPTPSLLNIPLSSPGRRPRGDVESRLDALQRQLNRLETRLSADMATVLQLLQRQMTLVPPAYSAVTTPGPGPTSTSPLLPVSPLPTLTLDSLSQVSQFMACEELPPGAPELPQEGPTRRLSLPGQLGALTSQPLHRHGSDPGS
Experimental: The IC50 value for HERG channel blockade was determined using a high throughput functional assay based on depolarisation-induced R^+-efflux from Chinese hamster ovary cells stably expressing the HERG-channel.
Cells were grown in Ham F12 (Life Technologies 31765-027) supplemented with 10% FBS and 0.6 mg/mL hygromycin B and were routinely passaged twice-weekly. For experimental studies, cells were plated at a density of 15,000 cells/well in Falcon, 384-well tissue culture-treated black-walled clear-bottomed plates and were thereafter incubated overnight at 37° C. in a cell culture incubator.
Following incubating overnight, cell plates were washed and a Rb^+-Load buffer (a physiological buffer containing Rb^+) was added. Cell plates were then incubated for 3 hours and were thereafter washed. Following this wash, the test compounds were added. The cell plates were then incubated for another 10 minutes and, following this incubation period, external K^+ concentration was increased in order to depolarize the cells and activate HERG channels. After a ten minute exposure period to the increased K^+ concentration, supernatants were transferred to new microplates for subsequent determination of Rb^+ content, using Atomic Absorption Spectrometry analysis. […]
Compound activity was expressed as: […]

With `Cc1noc(C)c1S(=O)(=O)NCCN1CC2CN(CCOc3ccc(C#N)cc3)CC(C1)O2` [Example 9, N-(2-{7-[2-(4-cyanophenoxy)ethyl]-9-oxa-3,7-diazabicyclo[3.3.1]non-3-yl}ethyl)-3,5-dimethylisoxazole-4-sulfonamide], the IC50 was 3.24 µM.

Values taken from US7648985B2, “Oxabispidine compounds and their use in the treatment of cardiac arrhythmias” (AstraZeneca AB, priority 2004, dated 2010).
